This is an account of results in US10399948B2, “Negative allosteric modulators of metabotropic glutamate receptor 3” (Vanderbilt University, priority 2015, dated 2019).

Structures are written as SMILES. Like-named read-outs stand apart in the source and are kept apart here. Bounds are passed on as bounds.

In test [1] the test system is group II mGlu receptors (mGlu2 and mGlu3). Particulars: cited from earlier work.
The target in a further test is rat mGlu5 (Rattus norvegicus (Rat), UniProt P31424). Nature of the test: mGlu5 Ca2+ flux assay. Particulars: for EC50: glutamate EC20, >10,000 = no plateau, >30,000 = no measurable activity; for activity at 30 µM: read-out: rat mGlu5 Glu max (%). Type of test: cell-based. The protocol:
HEK 293A cells stably expressing rat mGlu5 were plated in black-walled, clear-bottomed, poly-D-lysine coated 384-well plates in 20 μL of assay medium (DMEM containing 10% dialyzed FBS, 20 mM HEPES, 100 units/mL penicillin/streptomycin plus 250 ng/mL Fungizone, and 1 mM sodium pyruvate) at a density of 20K cells/well. The cells were grown overnight at 37° C. in the presence of 5% CO2. The next day, medium was removed and the cells incubated with 20 μL of […] Fluo-4, AM prepared as a 2.3 mM stock in DMSO and mixed in a 1:1 ratio with 10% (w/v) pluronic acid F-127 and diluted in assay buffer (Hank's balanced salt solution, 20 mM HEPES, and 2.5 mM probenecid) for 45 minutes at 37° C. Dye was removed, 20 μL of assay buffer was added, and the plate was incubated for 5 minutes at room temperature.
Ca^2+ flux was measured using the Functional Drug Screening System (FDSS7000, Hamamatsu, Japan). After establishment of a fluorescence baseline for about 3 seconds, the compounds of the present invention were added to the cells, and the response in cells was measured. 2.3 minutes later an EC20 concentration of the mGlu5 receptor agonist glutamate was added to the cells, and the response of the cells was measured for 1.9 minutes; an EC80 concentration of agonist was added and readings taken for an additional 1.7 minutes. All test compounds were dissolved and diluted to a concentration of 10 mM in 100% DMSO. Compounds were then serially diluted 1:3 in DMSO into 10 point concentration response curves, transferred to daughter plates, and further diluted into assay buffer to a 2× stock. Calcium fluorescence measures were recorded as fold over basal fluorescence; raw data was then normalized to the maximal response to glutamate.
The raw data file containing all time points was used as the data source in the analysis template. This was saved by the FDSS as a tab-delimited text file. Data were normalized using a static ratio function (F/F0) for each measurement of the total 360 values per well divided by each well's initial value. Data were then reduced to peak amplitudes (Max−Initial Min) using a time range that starts approximately 3 seconds prior to the glutamate EC20/EC80 addition and continues for approximately 90-120 seconds. This is sufficient time to capture the peak amplitude of the cellular calcium response. Individual amplitudes were expressed as % EMax by multiplying each amplitude by 100 and then dividing the product by the mean of the amplitudes derived from the glutamate ECMax-treated wells. EC50 values for test compounds were generated by fitting the normalized values versus the log of the test compound concentration (in mol/L) using a 4 parameter logistic equation where none of the parameters were fixed. Each of the three values collected at each concentration of test compound were weighted evenly.

The next test has as its target rat mGlu2 (Rattus norvegicus (Rat), UniProt P31421). Nature of the test: mGlu2 Ca2+ flux assay. Particulars: NAM, glutamate EC80; >30,000 = no measurable activity. The test is classed as cell-based. (In general: A change in cytosolic calcium serves as a functional read-out for many receptors and channels.)
The target in a further test is rat mGlu3 (Rattus norvegicus (Rat), UniProt P31422). The test can be described thus: mGlu3 Ca2+ flux assay. The test is classed as cell-based. Conditions: for IC50: NAM, glutamate EC80, >10,000 = decrease without plateau, >30,000 = no measurable activity; for remaining activity at 30 µM: response at 30 μM test compound as percentage of maximal response to glutamate, read-out: rat mGlu3 Glu max (%).
Chain of rat mGlu3 (P31422 23-879): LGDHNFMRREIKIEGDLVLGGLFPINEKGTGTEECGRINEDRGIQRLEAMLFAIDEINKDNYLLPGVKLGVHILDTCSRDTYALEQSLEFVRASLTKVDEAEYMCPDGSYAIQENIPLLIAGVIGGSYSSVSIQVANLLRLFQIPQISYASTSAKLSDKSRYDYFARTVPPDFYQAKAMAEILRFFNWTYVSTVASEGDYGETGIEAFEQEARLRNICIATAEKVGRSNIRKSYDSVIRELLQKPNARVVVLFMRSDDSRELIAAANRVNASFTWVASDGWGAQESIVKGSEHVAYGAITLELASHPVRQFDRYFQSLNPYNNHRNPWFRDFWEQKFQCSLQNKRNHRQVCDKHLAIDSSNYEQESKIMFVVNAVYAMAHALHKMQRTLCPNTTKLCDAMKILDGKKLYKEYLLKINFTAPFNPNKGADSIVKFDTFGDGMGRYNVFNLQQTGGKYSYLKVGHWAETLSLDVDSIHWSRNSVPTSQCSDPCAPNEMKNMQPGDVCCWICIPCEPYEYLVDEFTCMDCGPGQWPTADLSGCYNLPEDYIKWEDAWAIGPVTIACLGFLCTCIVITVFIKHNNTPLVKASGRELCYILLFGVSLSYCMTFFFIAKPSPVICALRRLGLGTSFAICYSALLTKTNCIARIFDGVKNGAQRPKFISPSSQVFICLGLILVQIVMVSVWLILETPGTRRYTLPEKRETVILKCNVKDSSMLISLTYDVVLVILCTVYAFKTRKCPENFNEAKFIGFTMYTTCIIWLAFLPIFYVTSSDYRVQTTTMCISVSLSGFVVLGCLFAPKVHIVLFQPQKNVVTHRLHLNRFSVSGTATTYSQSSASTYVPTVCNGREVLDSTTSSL

Test [2] deals with Aβ-induced neurodegeneration. Particulars: cited from earlier work.
Another test concerns mice. Conditions: cited from earlier work.
The conditions of test [3]: cited from earlier work.
The subject of a further test is mouse. Conditions: normal animals; cited from earlier work.
The test system of test [4] is olfactory bulbectomized rats. Conditions: repeated administration for 14 days; cited from earlier work.
The conditions of test [5]: in vivo; cited from earlier work.
For the next test, the system named is rat. Particulars: normal animals; cited from earlier work.
The subject of test [6] is social isolation-reared mice. Particulars: cited from earlier work.
Another test deals with Helpless (H) mice. Conditions: cited from earlier work.
Test [7] concerns central mGlu2 and mGlu3 receptors. Particulars: in vivo; cited from earlier work.
Another test deals with C57Bl6/J mice. Conditions: FST; cited from earlier work.
Setting [8] is: PAM, read-out: rat mGlu5 EC50 or IC50.
[9] abbreviates: PAM, response at 30 μM test compound as percentage of maximal response to glutamate.

Chain of rat mGlu5 (P31424 21-1203): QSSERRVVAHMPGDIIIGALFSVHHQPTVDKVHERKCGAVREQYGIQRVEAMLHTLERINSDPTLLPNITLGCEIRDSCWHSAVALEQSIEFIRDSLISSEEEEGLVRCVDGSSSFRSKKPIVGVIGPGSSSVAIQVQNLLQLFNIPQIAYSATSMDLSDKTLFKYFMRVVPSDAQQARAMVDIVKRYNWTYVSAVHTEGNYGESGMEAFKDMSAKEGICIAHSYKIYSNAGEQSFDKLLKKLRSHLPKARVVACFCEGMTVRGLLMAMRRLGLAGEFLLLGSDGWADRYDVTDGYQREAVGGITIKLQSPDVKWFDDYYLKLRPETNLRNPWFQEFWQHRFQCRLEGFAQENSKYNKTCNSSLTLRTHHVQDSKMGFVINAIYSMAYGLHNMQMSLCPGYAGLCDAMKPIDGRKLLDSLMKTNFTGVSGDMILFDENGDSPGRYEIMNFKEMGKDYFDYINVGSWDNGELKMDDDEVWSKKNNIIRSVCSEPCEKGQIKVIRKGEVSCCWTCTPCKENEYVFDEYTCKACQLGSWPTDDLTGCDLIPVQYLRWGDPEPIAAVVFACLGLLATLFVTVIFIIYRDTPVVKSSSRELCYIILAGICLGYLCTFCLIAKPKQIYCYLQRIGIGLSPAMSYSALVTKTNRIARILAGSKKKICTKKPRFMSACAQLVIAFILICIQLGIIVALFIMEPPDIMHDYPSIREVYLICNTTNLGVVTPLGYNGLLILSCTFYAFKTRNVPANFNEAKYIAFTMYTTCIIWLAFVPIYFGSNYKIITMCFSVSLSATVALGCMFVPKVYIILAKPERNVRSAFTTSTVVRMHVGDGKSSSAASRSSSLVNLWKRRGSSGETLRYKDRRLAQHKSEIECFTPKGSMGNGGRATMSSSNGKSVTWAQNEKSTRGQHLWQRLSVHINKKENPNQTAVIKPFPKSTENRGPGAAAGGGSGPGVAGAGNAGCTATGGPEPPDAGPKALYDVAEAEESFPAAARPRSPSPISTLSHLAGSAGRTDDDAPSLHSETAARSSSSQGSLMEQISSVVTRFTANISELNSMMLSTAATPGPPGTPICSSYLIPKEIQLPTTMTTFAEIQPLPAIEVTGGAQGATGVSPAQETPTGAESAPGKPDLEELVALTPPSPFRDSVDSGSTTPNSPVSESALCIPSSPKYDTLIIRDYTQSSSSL
Chain of rat mGlu2 (P31421 19-872): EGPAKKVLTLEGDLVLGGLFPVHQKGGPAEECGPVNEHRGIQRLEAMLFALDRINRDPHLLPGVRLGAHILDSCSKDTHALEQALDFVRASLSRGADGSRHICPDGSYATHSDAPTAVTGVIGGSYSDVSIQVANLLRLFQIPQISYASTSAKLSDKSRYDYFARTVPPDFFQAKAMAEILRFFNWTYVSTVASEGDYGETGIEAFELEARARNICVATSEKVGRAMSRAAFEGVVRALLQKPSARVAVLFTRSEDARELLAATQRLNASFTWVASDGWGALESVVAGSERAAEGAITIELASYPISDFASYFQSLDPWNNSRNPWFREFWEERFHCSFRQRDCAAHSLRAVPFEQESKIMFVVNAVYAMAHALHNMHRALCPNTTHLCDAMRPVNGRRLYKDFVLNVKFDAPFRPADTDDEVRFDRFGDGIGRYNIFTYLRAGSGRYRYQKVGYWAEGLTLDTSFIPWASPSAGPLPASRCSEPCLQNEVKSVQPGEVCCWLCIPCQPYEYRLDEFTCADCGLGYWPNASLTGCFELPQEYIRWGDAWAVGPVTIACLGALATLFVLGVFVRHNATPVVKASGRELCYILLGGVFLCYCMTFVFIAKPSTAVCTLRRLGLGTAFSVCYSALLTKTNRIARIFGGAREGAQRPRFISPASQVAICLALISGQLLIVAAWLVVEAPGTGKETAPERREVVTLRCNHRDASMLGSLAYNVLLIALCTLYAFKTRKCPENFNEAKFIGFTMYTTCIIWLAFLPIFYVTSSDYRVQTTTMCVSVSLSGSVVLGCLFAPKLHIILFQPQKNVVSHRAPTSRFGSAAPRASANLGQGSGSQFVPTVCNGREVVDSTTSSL

Regarding `CCCCCCCOC(=O)[C@@]1(F)[C@@H]2C[C@@H](OCc3ccc(Cl)c(Cl)c3)[C@@](N)(C(=O)O)[C@@H]21` [BCI-838], the “duration of inhibition of group II mGlu receptors” value in [1] (once-daily oral dosing, brain concentration of active metabolite BCI-632) was 22 h. In [1] (three months of treatment), the “Dutch APP transgene-associated learning and memory impairment” value is on record as “reversed”; the anxiolytic effects entry is reported as “anxiolytic effects”; the “levels of monomeric and oAβ peptides in the hippocampus and cortex” value is given as “decreased”. Also, the “hippocampal progenitor cell proliferation” value in test [1] (wild-type and Alzheimer's diseased mice, 3 months) was “stimulated”.
Regarding `O=c1cc(OCCOc2ccccc2)ncn1-c1ccc(F)cc1` [Compound 28, 3-(4-Fluorophenyl)-6-(2-phenoxyethoxy)pyrimidin-4(3H)-one], the EC50 on rat mGlu5 (setting [8]) stood at 1220 nM. The activity at 30 µM at rat mGlu5 (setting [9]) was 89.8%. The same compound displayed an IC50 against rat mGlu2 greater than 30000 nM. Moreover, on rat mGlu3, it took 1270 nM to reach half-maximal inhibition (IC50) and the remaining activity at 30 µM was found to be 10.1%.
As to `O=c1cc(OCCOc2ccccc2F)ccn1-c1ccc(F)cc1` [Compound 30, 4-(2-(2-fluorophenoxy)ethoxy)-1-(4-fluorophenyl)pyridin-2(1H)-one], the EC50 on rat mGlu5 (setting [8]) amounted to 1870 nM. For the same compound, the activity at 30 µM at rat mGlu5 (setting [9]) amounted to 92.8%. Also, the IC50 against rat mGlu2 is greater than 30000 nM. Further, on rat mGlu3, the IC50 came to 897 nM and the remaining activity at 30 µM stood at 2.48%.
Taken in the same sequence, the figures for `O=c1cc(OCCOc2cccc(F)c2)ccn1-c1ccc(F)cc1` [Compound 31, 4-(2-(3-fluorophenoxy)ethoxy)-1-(4-fluorophenyl)pyridin-2(1H)-one] were 1460 nM, 93.2%, greater than 30000 nM, 514 nM and 1.95%.
With `O=c1cc(OCCOc2ccc(F)cc2)ccn1-c1ccc(F)cc1` [Compound 32, 4-(2-(4-fluorophenoxy)ethoxy)-1-(4-fluorophenyl)pyridin-2(1H)-one], the EC50 on rat mGlu5 (setting [8]) was found to be 1500 nM. On rat mGlu5 (setting [9]), the activity at 30 µM was found to be 94.1%. For the same compound, on rat mGlu2, the IC50 is greater than 30000 nM. Moreover, on rat mGlu3, the midpoint of inhibition, the IC50, lay at 1050 nM and the remaining activity at 30 µM is -0.56%.
Taken in the same sequence, the figures for `O=c1cc(OCCOc2cccc(F)c2F)ccn1-c1ccc(F)cc1` [Compound 33, 4-(2-(2,3-difluorophenoxy)ethoxy)-1-(4-fluorophenyl)pyridin-2(1H)-one] were 6850 nM, 94.1%, greater than 30000 nM, 917 nM and -0.23%.
For `O=c1cc(OCCOc2ccc(Cl)cc2)ccn1-c1ccc(F)cc1` [Compound 39, 4-(2-(4-chlorophenoxy)ethoxy)-1-(4-fluorophenyl)pyridin-2(1H)-one], in that order: 10000 nM, 81.1%, greater than 30000 nM, 634 nM and 1.56%.
As to `N#Cc1cccc(OCCOc2ccn(-c3ccc(F)cc3)c(=O)c2)c1` [Compound 41, 3-(2-((1-(4-fluorophenyl)-2-oxo-1,2-dihydropyridin-4-yl)oxy)ethoxy)benzonitrile], the IC50 was greater than 10000 nM at rat mGlu5 (noted as weak NAM, glutamate EC80, read-out: rat mGlu5 EC50 or IC50); greater than 30000 nM against rat mGlu2; 715 nM against rat mGlu3. Besides, on rat mGlu5 (noted as weak NAM, response at 30 μM test compound), the activity at 30 µM was determined as 29.1%. In addition, the remaining activity at 30 µM at rat mGlu3 was 0.13%.
For `O=c1cc(OCCOc2ccc(F)nc2)ccn1-c1ccc(F)cc1` [Compound 45, 1-(4-fluorophenyl)-4-(2-((6-fluoropyridin-3-yl)oxy)ethoxy)pyridin-2(1H)-one], at rat mGlu5 (setting [8]), the half-maximal effective concentration (EC50) is greater than 10000 nM. At rat mGlu5 (setting [9]), the activity at 30 µM amounted to 35.5%. Also, the IC50 against rat mGlu2 was greater than 30000 nM. On rat mGlu3, the concentration for half-maximal inhibition (IC50) turned out to be 701 nM and the remaining activity at 30 µM was found to be 0.88%.
In the case of `O=c1cc(OCCOc2cc(Cl)ccn2)ccn1-c1ccc(F)cc1` [Compound 49, 4-(2-((4-Chloropyridin-2-yl)oxy)ethoxy)-1-(4-fluorophenyl)pyridin-2(1H)-one], at rat mGlu5 (setting [8]), the EC50 worked out at 8800 nM. The activity at 30 µM at rat mGlu5 (setting [9]) amounted to 82.3%. This compound also yielded an IC50 at rat mGlu2 greater than 30000 nM. On rat mGlu3, the IC50 was found to be 563 nM and the remaining activity at 30 µM was 0.73%.
Taken in the same sequence, the figures for `O=c1cc(OCCOc2ncccc2Cl)ccn1-c1ccc(F)cc1` [Compound 54, 4-(2-((3-chloropyridin-2-yl)oxy)ethoxy)-1-(4-fluorophenyl)pyridin-2(1H)-one] were 7820 nM, 94%, greater than 30000 nM, 443 nM and 0.96%.
Taken in the same sequence, the figures for `O=c1cc(OCCOc2ccc(Cl)cn2)ccn1-c1ccc(F)cc1` [Compound 55, 4-(2-((5-chloropyridin-2-yl)oxy)ethoxy)-1-(4-fluorophenyl)pyridin-2(1H)-one] were greater than 10000 nM, 25.2%, greater than 30000 nM, 729 nM and 0.32%.
Taken in the same sequence, the figures for `N#Cc1ccnc(OCCOc2ccn(-c3ccc(F)cc3)c(=O)c2)c1` [Compound 57, 2-(2-((1-(4-fluorophenyl)-2-oxo-1,2-dihydropyridin-4-yl)oxy)ethoxy)isonicotinonitrile] were greater than 10000 nM, 38.7%, greater than 30000 nM, 753 nM and -0.4%.
On to `CCS(=O)(=O)N(Cc1cccnc1)c1cccc(-c2ccc(C#N)cc2)c1` [LY566332], for which the Aβ-induced neurodegeneration entry in test [2] is reported as “amplified”.
Regarding `N[C@]1(C(=O)O)[C@H]2[C@@H](C[C@H]1OCc1ccc(Cl)c(Cl)c1)[C@]2(F)C(=O)O` [MGS0039], in the test with mice, the marble-burying behavior result is “reduced marble-burying behavior in a significant and dose dependent manner”; the spontaneous locomotor activity entry is listed as “no significant change”. Besides, in [3] (learned helplessness test/paradigm), the antidepressant effects entry was “antidepressant effects”. For the same compound, the “number of escape failures” value in test [3] (treatment for 7 days) is reported as “significantly reduced”. For the same compound, the antidepressant-like effects entry in the test on mouse is “Antidepressant-like effects”. In addition, in [4], the “hyperactivity in the open field test” value is listed as “attenuated” and the “learning deficit in the passive avoidance test” value is reported as “attenuated”. In addition, the freezing behavior entry in test [5] is reported as “significantly decreased”. In addition, the antidepressant-like effects entry in the test with rat is listed as “Antidepressant-like effects”. Besides, in test [6], the “increased immobility in the FST” value is listed as “reversed”.
Regarding `Cc1cc(-c2cccc(C3=Nc4cc(C)c(C(F)(F)F)cc4NC(=O)C3)c2)cc(C)n1` [RO4491533], in the test on Helpless (H) mice (Helpless (H) mice), the “activity in the tail suspension test” value is “active”. Further, in test [7], the “hypolocomotor effect of mGlu2/3 agonist LY379268” value is given as “reversed”. Moreover, the immobility time entry in the test with C57Bl6/J mice is recorded as “dose-dependently reduced”.
On to `CN1C(=O)CN=C(c2ccccc2)c2cc(Cl)ccc21` [diazepam], for which the freezing behavior result in [5] is recorded as “significantly decreased”.
In the case of `CNCCC(Oc1ccc(C(F)(F)F)cc1)c1ccccc1` (stereo not drawn) [fluoxetine], the “antidepressant effect in helpless mice” value in the test with Helpless (H) mice (chronic (21 days) treatment) is “full antidepressant effect”.

As usually defined, the EC50 is the concentration giving half of the maximal effect. Broadly, the IC50 is the concentration needed to halve the response being measured.
